Data: paper PMC5161641 (Nature, 2016)
Substitutions are numbered along the chain they refer to.

Tests used:
[1] = target: T1, human P2X3 receptor (hP2X3-MFC) (Homo sapiens, UniProt P56373); assay: SPA 3H-ATP saturation binding
T1 sequence (P56373 6-364): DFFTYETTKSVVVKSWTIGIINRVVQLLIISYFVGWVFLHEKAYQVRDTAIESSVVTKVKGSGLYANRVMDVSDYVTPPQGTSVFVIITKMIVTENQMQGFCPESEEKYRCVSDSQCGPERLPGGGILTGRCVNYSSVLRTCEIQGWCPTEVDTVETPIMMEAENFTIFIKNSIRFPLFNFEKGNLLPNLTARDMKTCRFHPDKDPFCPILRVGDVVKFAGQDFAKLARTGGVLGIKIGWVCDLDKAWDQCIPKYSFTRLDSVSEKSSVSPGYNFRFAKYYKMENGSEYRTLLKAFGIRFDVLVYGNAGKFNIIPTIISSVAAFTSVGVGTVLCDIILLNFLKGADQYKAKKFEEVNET

[2] = target: T2, human P2X3 receptor (hP2X3-MFCslow) (Homo sapiens, UniProt P56373, T13P/S15V/V16I); assay: SPA 3H-ATP saturation binding
T2 sequence (P56373 6-364 T13P/S15V/V16I): T1 sequence (P56373 6-364) with T8P, S10V, V11I

[3] = target: T1, human P2X3 receptor (hP2X3-MFC); assay: X-ray structure of soaked crystal; type: binding

| Ki [3] | SMILES | Kd [1] | Kd [2] |
| --- | --- | --- | --- |
| – | Nc1ncnc2c1ncn2[C@@H]1O[C@H](COP(=O)(O)OP(=O)(O)OP(=O)(O)O)[C@@H](O)[C@H]1O [ATP] | 2.8 ± 0.1 nM | 3.3 ± 0.3 nM |
| 1.9 ± 0.1 nM | CSc1nc(N)c2ncn([C@@H]3O[C@H](COP(=O)(O)OP(=O)(O)OP(=O)(O)O)[C@@H](O)[C@H]3O)c2n1 [2-methylthio-ATP, 2-(methylthio)adenosine 5′-triphosphate] | – | – |
